Values of other authors as cited in patent US9561225B2, “Pharmaceutical formulation containing opioid agonist, opioid antagonist and gelling agent” (Purdue Pharma L.P., priority 2001, dated 2017).

Legend:
[1] = after oral administration
[2] = tested on: morphine-like opioid agonist / heroin effects

SMILES	duration of action [1] [h]	block of the effect of 25 mg of heroin ([2]; 1 mg intravenously)	effect on morphine-like opioid agonist effects ([2]; 0.4-0.8 mg intramuscularly or intravenously in man)	time of absorption (following oral administration) [h]	protein binding (in vivo)
C[C@H]1[C@H]2Cc3ccc(O)cc3[C@]1(C)CCN2CC1CC1 [cyclazocine]	~24	–	–	–	–
C=CCN1CC[C@]23c4c5ccc(O)c4O[C@H]2C(=O)CC[C@@]3(O)[C@H]1C5 [naloxone]	–	completely block	prevent or promptly reverse the effects of morphine-like opioid agonist	–	–
O=C1CC[C@@]2(O)[C@H]3Cc4ccc(O)c5c4[C@@]2(CCN3CC2CC2)[C@H]1O5 [naltrexone]	~24	–	–	≤ 1	approximately 21%
